The record followed here is US4965280A, “Antifungal carbinols” (E. I. Du Pont de Nemours and Company, priority 1989, dated 1990).

By MIC is commonly meant the lowest concentration found to suppress growth.

For experiment [1], the system named is Rhizoctonia solani. Briefly: Example K cotton blight. In kind it is in vivo. The settings on record: 336 h, 5 kg/ha, read-out: disease control rating, Ex. K. As to the method:
[…] Seeds and soil were then inoculated with a mixture of sand, cereal and mycelium of the fungus Rhizoctonia solani, causal agent of cotton blight, and incubated in a growth chamber at 30° C. for 14 days. Disease ratings were then made.

In experiment [2] the test system is Pyricularia oryzae. Briefly: whole plant or invertebrate. In kind it is in vivo. The settings on record: Pyricularia oryzae, 120 h, read-out: disease control rating, Ex. E, 100 PPM.
The subject of experiment [3] is Phytophthora infestans. Briefly: whole plant or invertebrate. In kind it is in vivo. To be noted: Phytophthora infestans, in Solanum lycopersicum, read-out: disease control rating, Ex. H, 100 PPM.
In experiment [4] the test system is Candida albicans ATCC 11651. Briefly: In vitro antifungal MIC, microtiter broth dilution. To be noted: Candida albicans, ATCC11651, 24 h, read-out: MIC values, C. albicans, 30°, 24 hours. (Broth dilution looks for growth in wells or tubes with falling amounts of substance.)
For experiment [5], the system named is Fusarium oxysporum f. sp. cucumerinum. Briefly: Example L cucumber wilt. The experiment is classed as in vivo. To be noted: 336 h, 5 kg/ha, read-out: disease control rating, Ex. L. As to the method:
[…] Seeds and soil were then inoculated with a mixture of sand, cereal and mycelium of the fungus Fusarium oxysporum f. sp. cucumerinum, causal agent of cucumber wilt, and incubated in a growth chamber at 30° C. for 14 days. Disease ratings were then made.

Experiment [6] concerns Venturia inaequalis. Briefly: Example A apple scab. In kind it is in vivo. To be noted: 100 PPM, read-out: disease control rating, Ex. A. The method, boiled down: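 Spray application to run-off on apple seedlings; compound at 100 or 20 ppm in water with 250 ppm TREM 014 (polyhydric alcohol esters) and 6% acetone of final volume.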
Experiment [7] concerns Cercosporidium personatum. Briefly: Example B Peanut Late Leafspot. In kind it is in vivo. The settings on record: Nothopassalora personata; 100 PPM; read-out: disease control rating, Ex. B. The method, boiled down:
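Spray suspensions at 100 or 20 ppm, prepared from acetone solutions (acetone 6% of final volume) in water carrying 250 ppm of a polyhydric alcohol ester surfactant, were applied to peanut seedlings until run-off.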

The test system of experiment [8] is Erysiphe graminis f. sp. tritici. Briefly: Example D wheat powdery mildew. In kind it is in vivo. To be noted: Blumeria graminis, 144 h; 100 PPM; read-out: disease control rating, Ex. D. The method, boiled down: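 Seedling wheat was treated by spraying to run-off; formulation used acetone as co-solvent (6% final) and TREM 014 surfactant at 250 ppm, with compound at 100 or 20 ppm.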

The subject of experiment [9] is Aspergillus fumigatus ATCC 28214. Briefly: In vitro antifungal MIC, microtiter broth dilution. To be noted: Aspergillus fumigatus, ATCC28214, 24 h, read-out: MIC values, A. fumigatus, 30°, 24 hours.
Experimental: In vitro activity (Table 5) is expressed in terms of the minimal inhibitory concentration (MIC) of the test compound which inhibits the growth of yeasts and fungi.
The target organisms, Candida albicans ATCC 11651 and Aspergillus fumigatus ATCC 28214 are standardized, [V. Bezjak, J. Clinical Micro., 21 509-512 (1984)], to a concentration of 10^7 organisms/ml and maintained at -70° until use. Test compounds are solubilized in dimethyl sulfoxide (DMSO) and diluted in Eagle's Minimum Essential Medium (EMEM) broth to achieve a final concentration of 200 μg/ml. Stock solutions of standard antifungal agents are stored at -70° and diluted in EMEM as required.
The in vitro assay utilizes a microtiter broth dilution technique [L. Polonelli and G. Morace, Mycopathologia, 86, 21-28 (1984)] and C. […] The appropriate wells are inoculated with the required organism (C. albicans at 1×10^4 organisms/ml and A. fumigatus at 5×10^5 organisms/ml) and the assay incubated at 30° for 24 hours.
In experiment [10] the test system is Pythium aphanadermatum. Briefly: Example J cucumber damping off. The experiment is classed as in vivo. The settings on record: Pythium, 336 h; 5 kg/ha; read-out: disease control rating, Ex. J. In a few lines:
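This cucumber damping-off test used soil and seeds infested with a sand–cereal preparation carrying mycelium of Pythium aphanadermatum. Incubation took place in a growth chamber held at 30° C. for 14 days. Afterwards, the extent of disease was scored as a disease control rating.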

For experiment [11], the system named is Rhizoctonia solani. Briefly: Example F rice sheath blight. In kind it is in vivo. To be noted: Rhizoctonia solani, 144 h, 100 PPM; read-out: disease control rating, Ex. F. In a few lines: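 Foliar run-off spray, rice seedlings: compound at 100 or 20 ppm in aqueous 250 ppm polyhydric alcohol ester surfactant, acetone 6% v/v final.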
The test system of experiment [12] is Sclerotium rolfsii. Briefly: Example M southern blight. The experiment is classed as in vivo. The settings on record: Agroathelia rolfsii, 336 h; 5 kg/ha; read-out: disease control rating, Ex. M. On the procedure:
[…] Seeds and soil were then inoculated with a mixture of sand, cereal and mycelium of the fungus Sclerotium rolfsii, causal agent of sourthern blight, and incubated in a growth chamber at 30° C. for 14 days. Disease ratings were then made.

The subject of experiment [13] is Puccinia recondita. Briefly: Example G wheat leaf rust. In kind it is in vivo. The settings on record: 100 PPM, read-out: disease control rating, Ex. G.
Experiment [14] deals with Botrytis cinerea. Briefly: Example C bean grey mold. The experiment is classed as in vivo. The settings on record: Botrytis cinerea, 24 h, 100 PPM; read-out: disease control rating, Ex. C. The method, boiled down:
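Spray rates: 100 and 20 ppm. Vehicle: purified water with 6% acetone by final volume plus 250 ppm TREM 014 (polyhydric alcohol esters). Host plants, broad bean seedlings, were wetted until run-off.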

Experiment [15] has as its system Plasmorpara viticola. Briefly: Example I grape downy mildew. The experiment is classed as in vivo. The settings on record: read-out: disease control rating, Ex. I. The method, boiled down:
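Grape seedlings sprayed to run-off; test suspension 100 or 20 ppm compound, acetone 6% v/v final, 250 ppm TREM 014 in purified water.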

Experiment [16] relates to Candida albicans ATCC 11651. Briefly: In vivo systemic Candida infection in mice, primary assay. Also on record: species or system Candida albicans; CF-1 female mice. To be noted: Candida albicans, 150 mg/kg per day, read-out: % Survival. The method, boiled down:
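CF-1 female mice (20 g, 10 per group) were infected IV with 0.2 ml of 1×10^7/ml C. albicans ATCC 11651, then given test compound subcutaneously at 50 or 150 mg/kg/day at 1 and 6 h post-infection and once daily for three more days. Survival was followed for 21 days against infected untreated mice; ≥70% protection at 14 days was scored active.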

≈ marks a conversion by molar mass, not a printed value. Read-outs that look alike come from different tables or passages of the source.

In the case of `C=C(c1ccccc1)C(O)(Cn1ncnc1SCCCC)c1ccc(F)cc1` (centres unmarked) [Example 1459], the pest or weed control at 5000 g/ha in experiment [1], in experiment [5], in [10] and in experiment [12] was 0% throughout. The pest or weed control at 100 ppm was found to be 17% in experiment [2]; 0% in [3]; 72% in experiment [6]; 70% in experiment [7]; 31% in experiment [8]; 0% in [11]. Moreover, the figures for the pest or weed control at 100 ppm in experiment [13], in experiment [14] and in [15] were 65%, 65% and 74%, respectively. The MIC in experiment [4] and in [9] was > 100 µg/mL in each case.

Take `C=C(c1ccc(F)cc1)C(O)(Cn1cncn1)c1ccccc1Cl` (centres unmarked) [Example 646]: the pest or weed control at 5000 g/ha amounted to 0% in [1], 0% in [5], 100% in experiment [10] and 0% in [12]. In addition, the pest or weed control at 100 ppm in experiment [2] was found to be 97%; in experiment [3], 0%; in [6], 100%; in experiment [7], 100%; in experiment [8], 98%; in experiment [11], 61%. Also, the values for the pest or weed control at 100 ppm in experiment [13], in experiment [14] and in experiment [15] were 100%, 95% and 99%, respectively. In addition, the MIC worked out at 0.03 µg/mL (≈ 0.0873 µM) in experiment [4] and 0.4 µg/mL (≈ 1.16 µM) in experiment [9]. In addition, the responders at 150 mg/kg was 100% in experiment [16] (ATCC11651, 168 h, day 7); 100% in experiment [16] (ATCC11651, 336 h, day 14); 70% in experiment [16] (ATCC11651, 504 h, day 21).

As for `C=C(c1cccc(Cl)c1)C(O)(Cn1cncn1)c1ccc(F)cc1` (centres unmarked) [Example 39], the pest or weed control at 5000 g/ha in [1], in [5], in experiment [10] and in experiment [12] was 0% in each case. In addition, the pest or weed control at 100 ppm in experiment [2] was 7%; in [3] it was 0%; in experiment [6] it was 89%; in experiment [7] it was 97%; in experiment [8], 98%; in experiment [11], 100%. For the same compound, the pest or weed control at 100 ppm is 100% in experiment [13], 96% in experiment [14] and 81% in experiment [15]. Besides, the minimum inhibitory concentration (MIC) in [4] was found to be 0.4 µg/mL (≈ 1.16 µM); in experiment [9], 25 µg/mL (≈ 72.7 µM). Further, the responders at 150 mg/kg in [16] (ATCC11651, 168 h, day 7) is 100%; in experiment [16] (ATCC11651, 336 h, day 14), 80%.

In the case of `C=C(c1ccc(F)cc1)C(O)(Cn1ncnc1S)c1ccccc1F` (centres unmarked) [Example 1300], the pest or weed control at 5000 g/ha in [1], in experiment [5], in [10] and in experiment [12] was 0% each time. For the same compound, the pest or weed control at 100 ppm in experiment [2] is 58%; in experiment [3], 0%; in experiment [6], 100%; in [7] it was 100%; in experiment [8] it was 92%; in experiment [11], 81%. Further, the pest or weed control at 100 ppm stood at 100% in experiment [13], 93% in [14] and 0% in experiment [15]. Also, the minimal inhibitory concentration (MIC) in experiment [4] was ≤ 0.4 µg/mL; in experiment [9] it was 6.3 µg/mL (≈ 17.5 µM).
